These results are taken from ChEMBL document CHEMBL1201862, “PubChem BioAssay data set” (2004).

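Results reflect a 48-hour exposure of cells in 96-well plates to compound at five concentrations. Abbreviation: GI50, concentration required for 50% inhibition of growth.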 Calls of active or inactive are those of the source. Rule as the data show it: active = GI50 up to about 1.1 µM and inactive = higher.

Some test systems named below: SNB-19; DU-145; Hs-578T; SR; MCF7; MDA-MB-231; HCT-116; BT-549; HCT-15; RPMI-8226; SNB-75; SK-MEL-2; EKVX; A498; NCI-H460; OVCAR-3; TK-10; COLO 205; NCI-H226; SW-620.
Holding throughout (test): DTP human tumour cell line panel, 48 h

In general, GI50 refers to the concentration that inhibits growth by half. For `COc1ccccc1NCc1nnc(CCCCCCCCc2nnc(CNc3ccccc3OC)o2)o1`, the GI50 in the experiment on SNB-19, with DU-145, in the experiment with Hs-578T, with SR, in the experiment with MCF7 and with MDA-MB-231 was > 100 µM (inactive) throughout. Besides, the GI50 is > 100 µM (inactive) in the experiment with HCT-116; > 100 µM (inactive) with BT-549; greater than 100 µM in the experiment with HCT-15; > 100 µM (inactive) in the experiment on RPMI-8226; > 100 µM (inactive) in the experiment on SNB-75; > 100 µM (inactive) with SK-MEL-2. Besides, the GI50 with EKVX, in the experiment on A498, in the experiment on NCI-H460, in the experiment on OVCAR-3, with TK-10 and in the experiment on COLO 205 was > 100 µM (inactive) each time.
In the case of `Cc1cc(NCC2CC/C(=C\C=C\c3ccccc3)C2=O)no1` (stereo not drawn), the GI50 in the experiment on SNB-19 is > 100 µM (inactive); with DU-145 it was > 100 µM (inactive); in the experiment on Hs-578T, 85.1 µM (inactive); in the experiment with SR it was 36.9 µM (inactive); in the experiment on MCF7 it was 63.4 µM (inactive); in the experiment with NCI-H226, 49.8 µM (inactive). Besides, the GI50 in the experiment on MDA-MB-231 is 98.4 µM (inactive); in the experiment with HCT-116, > 100 µM (inactive); with BT-549 it was > 100 µM (inactive); with HCT-15, 67.3 µM; in the experiment with RPMI-8226, 19.5 µM (inactive); with EKVX, > 100 µM (inactive). Further, the GI50 is 51.8 µM (inactive) in the experiment with A498; > 100 µM (inactive) with SW-620; > 100 µM (inactive) in the experiment on NCI-H460; > 100 µM (inactive) in the experiment on OVCAR-3; 84.9 µM (inactive) in the experiment on TK-10; > 100 µM (inactive) with COLO 205.
As to `O=C1CC2(CCN(Cc3ccccc3)CC2)C(=O)N1N1CCCCC1`, the GI50 in the experiment on SNB-19, in the experiment with DU-145, in the experiment with Hs-578T, in the experiment with MCF7, with NCI-H226 and in the experiment on MDA-MB-231 was > 100 µM (inactive) each time. Moreover, the GI50 in the experiment on HCT-116 is > 100 µM (inactive); in the experiment with BT-549, > 100 µM (inactive); in the experiment with HCT-15, greater than 100 µM; in the experiment with RPMI-8226, > 100 µM (inactive); with SNB-75, > 100 µM (inactive); with SK-MEL-2, > 100 µM (inactive). Further, the GI50 in the experiment on A498, with SW-620, with NCI-H460, in the experiment on OVCAR-3, in the experiment on TK-10 and with COLO 205 was > 100 µM (inactive) in each case.
For the compound `C=CC(CBr)CCC(Br)C(C)(C)Br` (stereo not drawn), the GI50 with SNB-19, in the experiment with DU-145, with Hs-578T, with MCF7, with NCI-H226 and in the experiment on MDA-MB-231 was > 10 µM (inactive) throughout. In addition, the GI50 in the experiment on HCT-116 is > 10 µM (inactive); with BT-549 it was > 10 µM (inactive); in the experiment with HCT-15 it was greater than 10 µM; in the experiment on RPMI-8226 it was > 10 µM (inactive); in the experiment with SNB-75 it was > 10 µM (inactive); in the experiment with SK-MEL-2, > 10 µM (inactive). Also, the GI50 with EKVX, in the experiment on A498, in the experiment on SW-620, in the experiment on NCI-H460, in the experiment with OVCAR-3 and with TK-10 was > 10 µM (inactive) in each case. For the same compound, the GI50 with COLO 205 is > 10 µM (inactive).
As for `O=C(c1ccco1)N(C(=O)N1CCN(c2ccccc2)CC1)S(=O)(=O)c1ccccc1`, the GI50 with SNB-19 is 27.7 µM (inactive); in the experiment with DU-145 it was 43.7 µM (inactive); in the experiment with Hs-578T, 32 µM (inactive); in the experiment with SR, 23.8 µM (inactive); with MCF7, 29.4 µM (inactive); in the experiment with NCI-H226, 26.4 µM (inactive). In addition, the GI50 in the experiment with MDA-MB-231 is 36.9 µM (inactive); in the experiment with HCT-116 it was 21.3 µM (inactive); with BT-549, 32.7 µM (inactive); with HCT-15, 33.4 µM; with SNB-75 it was 24.5 µM (inactive); in the experiment with SK-MEL-2 it was 18.5 µM (inactive). Further, the GI50 is 22.4 µM (inactive) with EKVX; 37.5 µM (inactive) in the experiment on A498; 38.5 µM (inactive) in the experiment on SW-620; 32.3 µM (inactive) in the experiment with NCI-H460; 26.9 µM (inactive) with OVCAR-3; 33.3 µM (inactive) with TK-10. The GI50 in the experiment with COLO 205 was 28.4 µM (inactive).
Take `COc1ccc2c(c1)c1c(n2CCN2CCCCC2)-c2ccccc2CC1`: the GI50 in the experiment on SNB-19 is 16.6 µM (inactive); with DU-145, 32.1 µM (inactive); in the experiment with Hs-578T it was 13.5 µM (inactive); in the experiment on SR, 11.4 µM (inactive); in the experiment with MCF7 it was 14.3 µM (inactive); in the experiment with NCI-H226 it was 5.2 µM (inactive). In addition, the GI50 with MDA-MB-231 was 16.4 µM (inactive); in the experiment with HCT-116, 16.2 µM (inactive); in the experiment with BT-549, 23.1 µM (inactive); in the experiment on HCT-15, 11.5 µM; with RPMI-8226, 14.7 µM (inactive); with SNB-75, 14.6 µM (inactive). For the same compound, the GI50 was 15.2 µM (inactive) in the experiment on SK-MEL-2; 17.9 µM (inactive) with EKVX; 17.4 µM (inactive) with SW-620; 14.5 µM (inactive) with NCI-H460; 18.3 µM (inactive) in the experiment with OVCAR-3; 14 µM (inactive) in the experiment on TK-10. In the experiment with COLO 205, the GI50 was 13.6 µM (inactive).
As to `COc1ccc(C2=NN(C(=O)c3ccc(Cl)cc3)C(O)(c3cc(F)c(Cl)cc3Cl)C2)cc1` (stereo not drawn), the GI50 was > 100 µM (inactive) in the experiment on SNB-19; > 100 µM (inactive) with DU-145; > 100 µM (inactive) in the experiment with Hs-578T; 19 µM (inactive) in the experiment with MCF7; > 100 µM (inactive) with NCI-H226; > 100 µM (inactive) in the experiment on MDA-MB-231. The GI50 is 23.4 µM (inactive) with HCT-116; > 100 µM (inactive) in the experiment with BT-549; 28.1 µM in the experiment with HCT-15; 22.9 µM (inactive) in the experiment on RPMI-8226; 15 µM (inactive) in the experiment on SNB-75; 21.7 µM (inactive) in the experiment with SK-MEL-2. In addition, the GI50 is 6.04 µM (inactive) in the experiment with EKVX; 71.6 µM (inactive) in the experiment on A498; 56.8 µM (inactive) in the experiment on NCI-H460; > 100 µM (inactive) in the experiment on OVCAR-3; > 100 µM (inactive) with TK-10; 93.5 µM (inactive) in the experiment on COLO 205.
For `COc1cc(C(=O)O)c(-c2cc3c(cc2C=O)OCO3)c(OC)c1OC`, the GI50 in the experiment on SNB-19, in the experiment on DU-145, in the experiment on Hs-578T, in the experiment on SR, in the experiment on MCF7 and in the experiment with MDA-MB-231 was > 10 µM (inactive) throughout. Further, the GI50 with HCT-116 was > 10 µM (inactive); with BT-549 it was > 10 µM (inactive); with HCT-15 it was greater than 10 µM; in the experiment with RPMI-8226 it was > 10 µM (inactive); in the experiment with SNB-75, > 10 µM (inactive); with SW-620, > 10 µM (inactive). Further, the GI50 in the experiment with OVCAR-3, in the experiment with TK-10 and in the experiment with COLO 205 was > 10 µM (inactive) throughout.
As to `CC(=S)NC=C(C(N)=O)C(N)=O`, the GI50 with DU-145, with Hs-578T, in the experiment on SR, in the experiment with MCF7, with NCI-H226 and in the experiment on MDA-MB-231 was > 100 µM (inactive) throughout. Further, the GI50 in the experiment on HCT-116 is > 100 µM (inactive); in the experiment on BT-549, > 100 µM (inactive); in the experiment on HCT-15, greater than 100 µM; in the experiment on RPMI-8226, > 100 µM (inactive); with SNB-75, > 100 µM (inactive); in the experiment on SK-MEL-2, > 100 µM (inactive). Besides, the GI50 with EKVX, in the experiment with A498, with SW-620, in the experiment on OVCAR-3 and in the experiment on COLO 205 was > 100 µM (inactive) each time.
For the compound `CN(C)CCCNc1ccc2nnn3c4ccc(OC(=O)c5ccc([N+](=O)[O-])cc5)cc4c(=O)c1c23`, the GI50 with SNB-19 is 2.95 µM (inactive); in the experiment with DU-145, 2.61 µM (inactive); in the experiment with Hs-578T, 9.77 µM (inactive); with SR, 0.574 µM (active); in the experiment on MCF7, 2.27 µM (inactive); in the experiment with MDA-MB-231, 9.04 µM (inactive). Besides, the GI50 in the experiment with HCT-116 is 1.51 µM (inactive); in the experiment on BT-549, 16.4 µM (inactive); in the experiment with HCT-15, 2.72 µM; in the experiment on RPMI-8226 it was 2.44 µM (inactive); with SK-MEL-2 it was 18.8 µM (inactive); in the experiment with EKVX, 8.85 µM (inactive). Also, the GI50 is 16.6 µM (inactive) in the experiment with A498; 2.32 µM (inactive) with SW-620; 0.467 µM (active) in the experiment on NCI-H460; 10.9 µM (inactive) in the experiment with OVCAR-3; 5.82 µM (inactive) in the experiment on TK-10; 5.22 µM (inactive) in the experiment with COLO 205.
`O=c1c(C(c2ccc3ccccc3c2)c2c(O)oc3ccccc3c2=O)c(O)oc2ccccc12`: the GI50 was 46.3 µM (inactive) in the experiment on SNB-19; 40.7 µM (inactive) in the experiment on DU-145; 28.6 µM (inactive) in the experiment with Hs-578T; 37.1 µM (inactive) in the experiment with MCF7; 26.5 µM (inactive) in the experiment on NCI-H226; 22.6 µM (inactive) in the experiment on MDA-MB-231. Besides, the GI50 in the experiment with HCT-116 is 35 µM (inactive); in the experiment with BT-549, 24.8 µM (inactive); with HCT-15, 20 µM; with RPMI-8226, 32.4 µM (inactive); in the experiment with SNB-75, 18.8 µM (inactive); in the experiment on SK-MEL-2, 34.5 µM (inactive). In addition, the GI50 with EKVX was 31.9 µM (inactive); in the experiment with A498, 36.3 µM (inactive); in the experiment with SW-620 it was 31.9 µM (inactive); in the experiment on NCI-H460, 27.7 µM (inactive); in the experiment on OVCAR-3, 32.5 µM (inactive); with TK-10, 61.8 µM (inactive). Further, in the experiment with COLO 205, the GI50 was 30.5 µM (inactive).
